Reference: PubChem BioAssay AID1963978 (Molecular Pharmacology Branch, DTP, NCI, 2024)

System: 616215-338-R-J1-PDC spheroids with HUVEC/MSC, viability
Test: Anticancer human tumor 616215-338-R-J1-PDC patient-derived colon adenocarcinoma cell line growth inhibition [PI3K]
Conditions: for IC50: curve of first compound; for viability, T/C: stronger effect = lower value
Summary of the method: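 Complex 3D spheroids (cancer cells + endothelial HUVEC + mesenchymal stem cells); drug pairs of targeted agent x inavolisib/alpelisib/duvelisib/copanlisib; half-log series from ~Cmax, max 10 microM if Cmax unknown; endpoint viability.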

[1] = second compound 0.0316 µM, first compound 0.0316 µM
[2] = second compound 0.0316 µM, first compound 0.1 µM
[3] = second compound 0.0316 µM, first compound 0.316 µM
[4] = second compound 0.0316 µM, first compound 1 µM
[5] = second compound 0.0316 µM, first compound 3.16 µM
[6] = second compound 0.0316 µM, first compound 10 µM
[7] = second compound 0.1 µM, first compound 0.0316 µM
[8] = second compound 0.1 µM, first compound 0.1 µM
[9] = second compound 0.1 µM, first compound 0.316 µM
[10] = second compound 0.1 µM, first compound 1 µM
[11] = second compound 0.1 µM, first compound 3.16 µM
[12] = second compound 0.1 µM, first compound 10 µM
[13] = second compound 0.316 µM, first compound 0.0316 µM
[14] = second compound 0.316 µM, first compound 0.1 µM
[15] = second compound 0.316 µM, first compound 0.316 µM
[16] = second compound 0.316 µM, first compound 1 µM
[17] = second compound 0.316 µM, first compound 3.16 µM
[18] = second compound 0.316 µM, first compound 10 µM
[19] = second compound 1 µM, first compound 0.0316 µM
[20] = second compound 1 µM, first compound 0.1 µM
[21] = second compound 1 µM, first compound 0.316 µM
[22] = second compound 1 µM, first compound 1 µM
[23] = second compound 1 µM, first compound 3.16 µM
[24] = second compound 1 µM, first compound 10 µM
[25] = second compound 3.16 µM, first compound 0.0316 µM
[26] = second compound 3.16 µM, first compound 0.1 µM
[27] = second compound 3.16 µM, first compound 0.316 µM
[28] = second compound 3.16 µM, first compound 1 µM
[29] = second compound 3.16 µM, first compound 3.16 µM
[30] = second compound 3.16 µM, first compound 10 µM
[31] = second compound 10 µM, first compound 0.0316 µM
[32] = second compound 10 µM, first compound 0.1 µM
[33] = second compound 10 µM, first compound 0.316 µM
[34] = second compound 10 µM, first compound 1 µM
[35] = second compound 10 µM, first compound 3.16 µM
[36] = second compound 10 µM, first compound 10 µM
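Further: spheroids exposed to agents for seven days before the viability read.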

CCCS(=O)(=O)Nc1ccc(F)c(C(=O)c2c[nH]c3ncc(-c4ccc(Cl)cc4)cc23)c1F + COc1c(OCCCN2CCOCC2)ccc2c3n(c(=NC(=O)c4cnc(N)nc4)nc12)CCN3 showed an IC50 (second compound 0.00316 µM) of 4.83 µM, an IC50 (second compound 0.01 µM) of 5.11 µM and an IC50 (second compound 0.0316 µM) of 4.93 µM. For the same compound, the IC50 (second compound 0.1 µM) was 2.86 µM, the IC50 (second compound 0.316 µM) was < 0.0316 µM and the IC50 (second compound 1 µM) was < 0.0316 µM. For the same compound, the viability, T/C (second compound 0.00316 µM, first compound 0.0316 µM) was 91.8%, the viability, T/C (second compound 0.00316 µM, first compound 0.1 µM) was 96.1% and the viability, T/C (second compound 0.00316 µM, first compound 0.316 µM) was 99%. It also gave a viability, T/C (second compound 0.00316 µM, first compound 1 µM) of 97.9%, a viability, T/C (second compound 0.00316 µM, first compound 3.16 µM) of 77.9% and a viability, T/C (second compound 0.00316 µM, first compound 10 µM) of 2.29%. For the same compound, the viability, T/C (second compound 0.01 µM, first compound 0.0316 µM) was 105%, the viability, T/C (second compound 0.01 µM, first compound 0.1 µM) was 104% and the viability, T/C (second compound 0.01 µM, first compound 0.316 µM) was 98.3%. It also gave a viability, T/C (second compound 0.01 µM, first compound 1 µM) of 94.7%, a viability, T/C (second compound 0.01 µM, first compound 3.16 µM) of 84.9% and a viability, T/C (second compound 0.01 µM, first compound 10 µM) of 3.47%. For the same compound, the viability, T/C [1] was 105%, the viability, T/C [2] was 107% and the viability, T/C [3] was 120%. It also gave a viability, T/C [4] of 106%, a viability, T/C [5] of 77% and a viability, T/C [6] of 7.26%. For the same compound, the viability, T/C [7] was 99%, the viability, T/C [8] was 92.8% and the viability, T/C [9] was 87.3%. The viability, T/C [10] was 93.7%, the viability, T/C [11] was 45.9% and the viability, T/C [12] was 9.33%. For the same compound, the viability, T/C [13] was 53.8%, the viability, T/C [14] was 35.7% and the viability, T/C [15] was 38.9%. The viability, T/C [16] was 38.5%, the viability, T/C [17] was 27% and the viability, T/C [18] was 5.18%. The viability, T/C [19] was 23.3%, the viability, T/C [20] was 29.3% and the viability, T/C [21] was 21.3%. It also gave a viability, T/C [22] of 20.1%, a viability, T/C [23] of 18.7% and a viability, T/C [24] of 3.73%.
CCCS(=O)(=O)Nc1ccc(F)c(C(=O)c2c[nH]c3ncc(-c4ccc(Cl)cc4)cc23)c1F + Cc1nc(NC(=O)N2CCCC2C(N)=O)sc1-c1ccnc(C(C)(C)C(F)(F)F)c1 was tested, and the IC50 (second compound 0.0316 µM) was 4.02 µM, the IC50 (second compound 0.1 µM) was 4.28 µM and the IC50 (second compound 0.316 µM) was 4.25 µM. The IC50 (second compound 1 µM) was 4.51 µM, the IC50 (second compound 3.16 µM) was 3.71 µM and the IC50 (second compound 10 µM) was 2.99 µM. For the same compound, the viability, T/C [1] was 108%, the viability, T/C [2] was 94% and the viability, T/C [3] was 94.7%. It also gave a viability, T/C [4] of 81.2%, a viability, T/C [5] of 66.6% and a viability, T/C [6] of 3.55%. The viability, T/C [7] was 90.6%, the viability, T/C [8] was 92.5% and the viability, T/C [9] was 84.8%. It also gave a viability, T/C [10] of 91.2%, a viability, T/C [11] of 66.2% and a viability, T/C [12] of 4.03%. The viability, T/C [13] was 95.3%, the viability, T/C [14] was 90.1% and the viability, T/C [15] was 90.3%. It also gave a viability, T/C [16] of 85%, a viability, T/C [17] of 65.5% and a viability, T/C [18] of 5.89%. For the same compound, the viability, T/C [19] was 95.9%, the viability, T/C [20] was 92.2% and the viability, T/C [21] was 93.5%. For the same compound, the viability, T/C [22] was 86.1%, the viability, T/C [23] was 69.9% and the viability, T/C [24] was 6.45%. For the same compound, the viability, T/C [25] was 96.8%, the viability, T/C [26] was 86.8% and the viability, T/C [27] was 91.9%. It also gave a viability, T/C [28] of 82.3%, a viability, T/C [29] of 57% and a viability, T/C [30] of 5.97%. It also gave a viability, T/C [31] of 91.7%, a viability, T/C [32] of 86.4% and a viability, T/C [33] of 87.4%. The viability, T/C [34] was 87.8%, the viability, T/C [35] was 48% and the viability, T/C [36] was 4.82%.
Compound CC1(C)CCC(CN2CCN(c3ccc(C(=O)NS(=O)(=O)c4ccc(NCC5CCOCC5)c([N+](=O)[O-])c4)c(Oc4cnc5[nH]ccc5c4)c3)CC2)=C(c2ccc(Cl)cc2)C1 + Cc1nc(NC(=O)N2CCCC2C(N)=O)sc1-c1ccnc(C(C)(C)C(F)(F)F)c1 has an IC50 (second compound 0.0316 µM) of 5.22 µM, an IC50 (second compound 0.1 µM) of 5 µM and an IC50 (second compound 0.316 µM) of 4.98 µM. For the same compound, the IC50 (second compound 1 µM) was 5.11 µM, the IC50 (second compound 3.16 µM) was 5.37 µM and the IC50 (second compound 10 µM) was 4.47 µM. For the same compound, the viability, T/C [1] was 95.6%, the viability, T/C [2] was 98.9% and the viability, T/C [3] was 108%. The viability, T/C [4] was 102%, the viability, T/C [5] was 86.4% and the viability, T/C [6] was 2.58%. The viability, T/C [7] was 97.4%, the viability, T/C [8] was 92.3% and the viability, T/C [9] was 95.8%. For the same compound, the viability, T/C [10] was 104%, the viability, T/C [11] was 81.5% and the viability, T/C [12] was 1.97%. It also gave a viability, T/C [13] of 98.5%, a viability, T/C [14] of 97.1% and a viability, T/C [15] of 90.5%. The viability, T/C [16] was 97.7%, the viability, T/C [17] was 81% and the viability, T/C [18] was 2.29%. The viability, T/C [19] was 103%, the viability, T/C [20] was 92.3% and the viability, T/C [21] was 102%. For the same compound, the viability, T/C [22] was 93%, the viability, T/C [23] was 85.3% and the viability, T/C [24] was 0.61%. It also gave a viability, T/C [25] of 95.6%, a viability, T/C [26] of 99.4% and a viability, T/C [27] of 101%. The viability, T/C [28] was 97.9%, the viability, T/C [29] was 91.9% and the viability, T/C [30] was 0.6%. The viability, T/C [31] was 92.8%, the viability, T/C [32] was 99.9% and the viability, T/C [33] was 94.8%. The viability, T/C [34] was 87.1%, the viability, T/C [35] was 72.4% and the viability, T/C [36] was 0.39%.
CC(C)NCC(C(=O)N1CCN(c2ncnc3c2C(C)CC3O)CC1)c1ccc(Cl)cc1 (stereo not drawn) + CC(Nc1ncnc2nc[nH]c12)c1cc2cccc(Cl)c2c(=O)n1-c1ccccc1 was tested, and the IC50 (second compound 0.0316 µM) was 4.16 µM, the IC50 (second compound 0.1 µM) was 3.77 µM and the IC50 (second compound 0.316 µM) was 4.74 µM. It also gave an IC50 (second compound 1 µM) of 5.08 µM, an IC50 (second compound 3.16 µM) of 4.13 µM and an IC50 (second compound 10 µM) of 3.54 µM. It also gave a viability, T/C [1] of 91.7%, a viability, T/C [2] of 93.4% and a viability, T/C [3] of 94.4%. The viability, T/C [4] was 87.2%, the viability, T/C [5] was 57.9% and the viability, T/C [6] was 24.9%. It also gave a viability, T/C [7] of 103%, a viability, T/C [8] of 86.7% and a viability, T/C [9] of 91%. For the same compound, the viability, T/C [10] was 94.2%, the viability, T/C [11] was 54.8% and the viability, T/C [12] was 23.5%. The viability, T/C [13] was 90.5%, the viability, T/C [14] was 95% and the viability, T/C [15] was 83.7%. For the same compound, the viability, T/C [16] was 94%, the viability, T/C [17] was 65.2% and the viability, T/C [18] was 21.9%. The viability, T/C [19] was 90.3%, the viability, T/C [20] was 90.8% and the viability, T/C [21] was 101%. The viability, T/C [22] was 109%, the viability, T/C [23] was 67.2% and the viability, T/C [24] was 25.4%. It also gave a viability, T/C [25] of 89.2%, a viability, T/C [26] of 101% and a viability, T/C [27] of 99.8%. For the same compound, the viability, T/C [28] was 79.9%, the viability, T/C [29] was 58.4% and the viability, T/C [30] was 26.2%. It also gave a viability, T/C [31] of 105%, a viability, T/C [32] of 104% and a viability, T/C [33] of 100%. The viability, T/C [34] was 91.7%, the viability, T/C [35] was 52.2% and the viability, T/C [36] was 27.8%.
